Inhibition data for one molecule are collected here from patent US20210008145A1, “EDICINE COMPOSITION FOR TREATMENT OF HUMAN PAPILLOMAVIRUS INFECTION AND PREPARATION METHOD THEREOF” (Jiangsu Zhengyang Pharmaceutical Co., Ltd., priority 2018, published 2021).

For this test, the system named is HeLa cells. Kind of test: MTT assay, inhibition of HeLa cell proliferation. The test is classed as cell-based. To be noted: Homo sapiens, crude drug 25 g/L (cidofovir 10 μmol/mL), read-out: inhibition percentage on HeLa cell proliferation. The protocol:
The percentage inhibition on HeLa cell proliferation for each compound prepared in Examples 1-7 was determined by MTT assay (MTT Cell Proliferation and Cytotoxicity Assay Kit). HeLa cells was cultured in a 96-well plate for 6.0×10^3 cells per well, and allowed to adhere to the surface of the 96-well plate. Serum-free medium was added to each well of control group. Cidofovir was diluted in purified water such that the final concentration of cidofovir in the assay was 10 μmol/mL, and the resulting solution was added to each well of positive control group. Each compound of Examples 1-7 was diluted in water to a crude drug concentration of 25 g/L, and the resulting solution was added to the 96-well plate for a final volume of 200 μL per well. 200 μL of complete medium was only added to each well of blank control group. Each experimental group was done in 6 well replicates. After incubation of 24, 48, and 72 hours, 20 μL of 5 g/L MTT was added to each well and the plates were further incubated at 37° C. for 4 hours. Following discarding the supernatant, 200 μL of dimethyl sulfoxide (DMSO) was added to each well and the plates were shaken sufficiently as so to dissolve the crystals. Absorbance (A) of the wells at 490 nm was measured. These measurements then are used to calculate the percentage inhibition of cell growth: percentage inhibition=1−[…]×100%, where TA refers to the average absorbance of treatment group, and CA refers to the average absorbance of control group.

Like-named read-outs stand apart in the source and are kept apart here.

As to `Nc1ccn(C[C@@H](CO)OCP(=O)(O)O)c(=O)n1` [Cidofovir], the inhibition at 25000 µg/mL runs as follows: (24 hours) 32.2 ± 2.08%; (48 hours) 48.6 ± 3.5%; (72 hours) 58.1 ± 3.21%.
